From patent publication US20090203737A1, “Pyrrole Derivatives as Positive Allosteric Modulators of Metabotropic Receptors” (priority 2005, published 2009) come the findings set out here.

Bounds are passed on as bounds.

In the assay the target is T1, rat mGluR5 receptor (Rattus norvegicus, UniProt P31424).
T1 construct: expressed in transfected cells
Nature of the assay: mGluR5 assay on HEK-expressing rat mGluR5 (fluorescent cell based Ca2+ mobilization assay). The conditions noted are these: HEK-293 cells stably expressing rat mGluR5; no co-addition of glutamate; mean of at least three independent experiments in duplicate; read-out: Ca++ Flux (mean EC50). As for the experimental part:
Positive functional expression of HEK-293 cells stably expressing rat mGluR5 receptor was determined by measuring intracellular Ca^2+ changes using a Fluorometric Imaging Plate Reader (FLIPR, Molecular Devices, Sunnyvale, Calif.) in response to glutamate or selective known mGluR5 agonists and antagonists. Rat mGluR5 RT-PCR products in HEK-293 cells were sequenced and found 100% identical to rat mGluR5 Genbank reference sequence (NM_017012). HEK-293 cells expressing rmGluR5 were maintained in media containing DMEM, dialyzed Fetal Bovine Serum (10%), Glutamax™ (2 mM), Penicillin (100 units/ml), Streptomycin (100 μg/ml), Geneticin (100 μg/ml) and Hygromycin-B (40 μg/ml) at 37° C./5% CO2.
After one day of incubation, cells were washed with assay buffer containing: 142 mM NaCl, 6 mM KCl, 1 mM […], 1 mM CaCl2, 20 mM HEPES, 1 g/L glucose, 0.125 mM sulfinpyrazone, pH 7.4. After 60 min of loading with 4 uM Fluo-4 (TefLabs, Austin, Tex.), the cells were washed three times with 50 μl of PBS Buffer and resuspended in 45 μl of assay Buffer. The plates were then transferred to a Fluorometric Imaging Plate Reader (FLIPR, Molecular Devices, Sunnyvale, Calif.) for the assessment of intracellular calcium flux. After monitoring the baseline fluorescence for 10 seconds, increasing concentrations of representative compound (from 0.01 to 60 μM) of the present invention diluted in Assay Buffer (15 μl of 4× dilutions) was added to the cell. The final DMSO concentration in the assay was 0.3%. In each experiment, fluorescence was then monitored as a function of time for 3 minutes and the data analyzed using Microsoft Excel and GraphPad Prism. Each data point was also measured two times.
Under these experimental conditions, this HEK-rat mGluR5 cell line is able to directly detect positive allosteric modulators without the need of co-addition of glutamate or mGluR5 agonist.
The concentration-response curves of representative compounds of the present invention were generated using the Prism GraphPad software (Graph Pad Inc, San Diego, USA). The curves were fitted to a four-parameter logistic equation:
(Y=Bottom+(Top−Bottom)/(1+10̂((LogEC50−X)*Hill Slope)
allowing determination of EC50 values.
The Table 1 below represents the mean EC50 obtained from at least three independent experiments of selected molecules performed in duplicate.
In general terms: A change in cytosolic calcium serves as a functional read-out for many receptors and channels.

T1 sequence (P31424 21-1171 isoform P31424-2 limits assumed): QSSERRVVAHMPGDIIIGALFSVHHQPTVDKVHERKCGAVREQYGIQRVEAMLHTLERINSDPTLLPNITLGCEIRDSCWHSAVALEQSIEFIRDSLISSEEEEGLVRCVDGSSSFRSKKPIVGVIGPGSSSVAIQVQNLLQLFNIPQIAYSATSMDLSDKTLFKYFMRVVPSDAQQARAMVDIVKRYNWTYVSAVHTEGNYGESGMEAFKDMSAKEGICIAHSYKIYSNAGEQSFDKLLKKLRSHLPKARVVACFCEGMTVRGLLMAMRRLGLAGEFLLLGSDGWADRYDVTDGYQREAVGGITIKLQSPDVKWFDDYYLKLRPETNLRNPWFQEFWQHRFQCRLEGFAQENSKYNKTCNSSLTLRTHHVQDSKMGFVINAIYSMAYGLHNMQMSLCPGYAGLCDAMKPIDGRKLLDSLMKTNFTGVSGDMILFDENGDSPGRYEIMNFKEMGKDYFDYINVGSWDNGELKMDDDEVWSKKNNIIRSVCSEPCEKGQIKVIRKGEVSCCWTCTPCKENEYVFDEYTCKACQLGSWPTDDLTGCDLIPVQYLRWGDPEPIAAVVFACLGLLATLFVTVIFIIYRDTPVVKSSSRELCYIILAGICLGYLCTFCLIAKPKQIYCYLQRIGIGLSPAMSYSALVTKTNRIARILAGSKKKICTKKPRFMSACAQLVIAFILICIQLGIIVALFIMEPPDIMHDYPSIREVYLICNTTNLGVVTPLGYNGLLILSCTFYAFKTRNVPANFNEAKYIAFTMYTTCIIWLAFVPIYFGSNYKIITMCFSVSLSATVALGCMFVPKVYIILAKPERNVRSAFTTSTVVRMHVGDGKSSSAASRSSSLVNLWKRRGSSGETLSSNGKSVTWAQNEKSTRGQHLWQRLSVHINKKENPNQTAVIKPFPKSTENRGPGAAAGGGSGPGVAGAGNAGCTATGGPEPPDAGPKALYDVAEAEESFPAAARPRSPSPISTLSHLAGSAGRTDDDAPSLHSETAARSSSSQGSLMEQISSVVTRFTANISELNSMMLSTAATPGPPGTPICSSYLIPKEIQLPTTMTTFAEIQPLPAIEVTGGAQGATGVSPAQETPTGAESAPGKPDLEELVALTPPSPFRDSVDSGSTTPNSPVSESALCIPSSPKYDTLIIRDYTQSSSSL

What is called EC50 is the concentration at which the effect is half-maximal. Consider `O=C(c1ccc(F)nc1)N1CCC[C@H](c2noc(-c3cc(F)c[nH]3)n2)C1` [Example 64, (6-Fluoro-pyridin-3-yl)-{(S)-3-[5-(4-fluoro-1H-pyrrol-2-yl)-[1,2,4]oxadiazol-3-yl]-piperidin-1-yl}-methanone], for which the EC50 was 1000 to 10000 nM.
Next, `O=C(c1ccc(F)cc1)N1CCC[C@H](n2nnc(-c3ccc[nH]3)n2)C1` [Example 54, (4-Fluoro-phenyl)-{(S)-3-[5-(1H-pyrrol-2-yl)-tetrazol-2-yl]-piperidin-1-yl}-methanone]: below 1000 nM; `O=C(c1ccc(F)cc1)N1CCCC(c2noc(-c3ccn[nH]3)n2)C1` (centres unmarked) [Example 13, (4-Fluoro-phenyl)-{3-[5-(2H-pyrazol-3-yl)-[1,2,4]oxadiazol-3-yl]-piperidin-1-yl}-methanone]: above 10000 nM; `Cc1oncc1C(=O)N1CCC[C@H](c2nc(-c3cc(Cl)c[nH]3)no2)C1` [Example 68, {(S)-3-[3-(4-Chloro-1H-pyrrol-2-yl)-[1,2,4]oxadiazol-5-yl]-piperidin-1-yl}-(5-methyl-isoxazol-4-yl)-methanone]: 1000 to 10000 nM.
The figure for `O=C(c1ccc(F)cc1)N1CCC[C@H](c2nc(-c3cc4ccccc4[nH]3)no2)C1` [Example 16, (4-Fluoro-phenyl)-{(S)-3-[3-(1H-indol-2-yl)-[1,2,4]oxadiazol-5-yl]-piperidin-1-yl}-methanone] is 1000 to 10000 nM; for `Cc1c[nH]c(-c2noc([C@H]3CCCN(C(=O)c4cnoc4C)C3)n2)c1` [Example 35, (5-Methyl-isoxazol-4-yl)-{(S)-3-[3-(4-methyl-1H-pyrrol-2-yl)-[1,2,4]oxadiazol-5-yl]-piperidin-1-yl}-methanone] it is below 1000 nM; for `Cc1c[nH]c(-c2nc([C@H]3CCCN(C(=O)c4ccc(F)nc4)C3)no2)c1` [Example 28, (6-Fluoro-pyridin-3-yl)-{(S)-3-[5-(4-methyl-1H-pyrrol-2-yl)-[1,2,4]oxadiazol-3-yl]-piperidin-1-yl}-methanone] it is below 1000 nM.
The figure for `O=C(c1ccnc(F)c1)N1CCC[C@H](c2noc(-c3cc(Cl)c[nH]3)n2)C1` [Example 41, {(S)-3-[5-(4-Chloro-1H-pyrrol-2-yl)-[1,2,4]oxadiazol-3-yl]-piperidin-1-yl}-(2-fluoro-pyridin-4-yl)-methanone] is below 1000 nM; for `O=C(c1ccc(F)cc1)N1CCC(c2nc(-c3ccc[nH]3)no2)C1` (centres unmarked) [Example 57, (4-Fluoro-phenyl)-{3-[3-(1H-pyrrol-2-yl)-[1,2,4]oxadiazol-5-yl]-pyrrolidin-1-yl}-methanone] it is 1000 to 10000 nM.
For `O=C(c1ccc(F)cc1)N1CCC[C@H](c2noc(-c3cc(Cl)c[nH]3)n2)C1` [Example 39, {(S)-3-[5-(4-Chloro-1H-pyrrol-2-yl)-[1,2,4]oxadiazol-3-yl]-piperidin-1-yl}-(4-fluoro-phenyl)-methanone], the EC50 is below 1000 nM.
Take `Cc1c[nH]c(-c2noc([C@H]3CCCN(C(=O)c4ccnc(F)c4)C3)n2)c1` [Example 34, (2-Fluoro-pyridin-4-yl)-{(S)-3-[3-(4-methyl-1H-pyrrol-2-yl)-[1,2,4]oxadiazol-5-yl]-piperidin-1-yl}-methanone]: the half-maximal effective concentration (EC50) was below 1000 nM.
The figure for `Cc1c[nH]c(-c2nc([C@H]3CCCN(C(=O)c4ccnc(F)c4)C3)no2)c1` [Example 30, (2-Fluoro-pyridin-4-yl)-{(S)-3-[5-(4-methyl-1H-pyrrol-2-yl)-[1,2,4]oxadiazol-3-yl]-piperidin-1-yl}-methanone] is below 1000 nM.
For the molecule `O=C(c1ccc(F)nc1)N1CCC[C@H](c2nc(-c3cc(Cl)c[nH]3)no2)C1` [Example 65, {(S)-3-[3-(4-Chloro-1H-pyrrol-2-yl)-[1,2,4]oxadiazol-5-yl]-piperidin-1-yl}-(6-fluoro-pyridin-3-yl)-methanone], the EC50 was 1000 to 10000 nM.
The figure for `O=C(c1ccncc1F)N1CCC[C@H](c2nc(-c3cc(F)c[nH]3)no2)C1` [Example 70, (3-Fluoro-pyridin-4-yl)-{(S)-3-[3-(4-fluoro-1H-pyrrol-2-yl)-[1,2,4]oxadiazol-5-yl]-piperidin-1-yl}-methanone] is 1000 to 10000 nM; for `O=C(c1ccc(F)nc1)N1CCC[C@H](c2nc(-c3cc(Br)c[nH]3)no2)C1` [Example 46, {(S)-3-[3-(4-Bromo-1H-pyrrol-2-yl)-[1,2,4]oxadiazol-5-yl]-piperidin-1-yl}-(6-fluoro-pyridin-3-yl)-methanone] it is below 1000 nM; for `O=C(c1ccc(F)cc1)N1CCC[C@H](c2nc(-c3cc(Cl)c[nH]3)no2)C1` [Example 43, {(S)-3-[3-(4-Chloro-1H-pyrrol-2-yl)-[1,2,4]oxadiazol-5-yl]-piperidin-1-yl}-(4-fluoro-phenyl)-methanone] it is below 1000 nM.
Next, `Cc1c[nH]c(-c2nc([C@H]3CCCN(C(=O)c4ccncc4F)C3)no2)c1` [Example 58, (3-Fluoro-pyridin-4-yl)-{(S)-3-[5-(4-methyl-1H-pyrrol-2-yl)-[1,2,4]oxadiazol-3-yl]-piperidin-1-yl}-methanone]: below 1000 nM; `O=C(c1ccc(F)c(F)c1)N1CCCC(c2noc(-c3ccn[nH]3)n2)C1` (centres unmarked) [Example 14, (3,4-Difluoro-phenyl)-{3-[5-(2H-pyrazol-3-yl)-[1,2,4]oxadiazol-3-yl]-piperidin-1-yl}-methanone]: above 10000 nM; `Cc1oncc1C(=O)N1CCC[C@H](c2noc(-c3cc(Cl)c[nH]3)n2)C1` [Example 42, {(S)-3-[5-(4-Chloro-1H-pyrrol-2-yl)-[1,2,4]oxadiazol-3-yl]-piperidin-1-yl}-(5-methyl-isoxazol-4-yl)-methanone]: below 1000 nM.
As for `O=C(c1ccc(F)nc1)N1CCC[C@H](c2noc(-c3cc(Cl)c[nH]3)n2)C1` [Example 40, {(S)-3-[5-(4-Chloro-1H-pyrrol-2-yl)-[1,2,4]oxadiazol-3-yl]-piperidin-1-yl}-(6-fluoro-pyridin-3-yl)-methanone], the EC50 was below 1000 nM.
The figure for `O=C(c1ccncc1F)N1CCC[C@H](c2nc(-c3cc(Cl)c[nH]3)no2)C1` [Example 67, {(S)-3-[3-(4-Chloro-1H-pyrrol-2-yl)-[1,2,4]oxadiazol-5-yl]-piperidin-1-yl}-(3-fluoro-pyridin-4-yl)-methanone] is 1000 to 10000 nM; for `CC1(C)CC(c2nc(-c3ccc[nH]3)no2)CN(C(=O)c2ccc(F)cc2)C1` (centres unmarked) [Example 49, {3,3-Dimethyl-5-[3-(1H-pyrrol-2-yl)-[1,2,4]oxadiazol-5-yl]-piperidin-1-yl}-(4-fluoro-phenyl)-methanone] it is 1000 to 10000 nM.
Next, `O=C(c1ccc(F)cc1)N1CCC[C@H](c2nc(-c3cc(Br)c[nH]3)no2)C1` [Example 45, {(S)-3-[3-(4-Bromo-1H-pyrrol-2-yl)-[1,2,4]oxadiazol-5-yl]-piperidin-1-yl}-(4-fluoro-phenyl)-methanone]: below 1000 nM; `O=C(c1ccc(F)cc1)N1CCCC(c2noc(-c3ncc[nH]3)n2)C1` (centres unmarked) [Example 17, (4-Fluoro-phenyl)-{3-[5-(1H-imidazol-2-yl)-[1,2,4]oxadiazol-3-yl]-piperidin-1-yl}-methanone]: 1000 to 10000 nM.
The figure for `Cc1c[nH]c(-c2noc([C@H]3CCCN(C(=O)c4ccc(F)c(F)c4)C3)n2)n1` [Example 79, (3,4-Difluoro-phenyl)-{(S)-3-[3-(4-methyl-1H-imidazol-2-yl)-[1,2,4]oxadiazol-5-yl]-piperidin-1-yl}-methanone] is 1000 to 10000 nM.
Turning to `O=C(c1ccncc1F)N1CCC[C@H](c2nc(-c3cc(Br)c[nH]3)no2)C1` [Example 69, {(S)-3-[3-(4-Bromo-1h-pyrrol-2-yl)-[1,2,4]oxadiazol-5-yl]-piperidin-1-yl}-(3-fluoro-pyridin-4-yl)-methanone], the EC50 fell in the range of 1000 to 10000 nM.
With `O=C(c1ccc(F)cc1)N1CCC[C@H](c2noc(-c3nc(C(F)(F)F)c[nH]3)n2)C1` [Example 55, (4-Fluoro-phenyl)-{(S)-3-[5-(4-trifluoromethyl-1H-imidazol-2-yl)-[1,2,4]oxadiazol-3-yl]-piperidin-1-yl}-methanone], the EC50 was in the range of 1000 to 10000 nM.
The figure for `O=C(c1ccc(F)cc1F)N1CCC[C@H](c2nc(-c3cc4ccccc4[nH]3)no2)C1` [Example 12, (2,4-Difluoro-phenyl)-{(S)-3-[3-(1H-indol-2-yl)-[1,2,4]oxadiazol-5-yl]-piperidin-1-yl}-methanone] is 1000 to 10000 nM.
For the molecule `O=C(c1ccc(F)cc1)N1CCC[C@H](c2nc(-c3ncc[nH]3)no2)C1` [Example 24, (4-Fluoro-phenyl)-{(S)-3-[3-(1H-imidazol-2-yl)-[1,2,4]oxadiazol-5-yl]-piperidin-1-yl}-methanone], the EC50 lay in the range of 1000 to 10000 nM.
